How the values were obtained:
Assay in all cases: NCI SRB growth inhibition (single dose 10 µM / five-dose)
Type in all cases: cell-based, human
OVCAR-8 = conditions: for GI50: OVCAR-8, Ovarian cancer, five-dose
Summary of the method: (§1)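 Cells plated at 5000–40,000 cells/well by doubling time; time-zero plates TCA-fixed after 24 h. Compounds (DMSO stocks) added at five 10-fold or ½-log concentrations plus control. Adherent cells TCA-fixed, stained with 0.4% SRB in 1% acetic acid; percentage growth from Tz, C and Ti absorbances.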

CCRF-CEM = conditions: for GI50: CCRF-CEM, Leukemia, five-dose
Summary of the method: as §1

MALME-3 M = conditions: for GI50: MALME-3 M, Melanoma, five-dose
Summary of the method: as §1

HCT-15 = conditions: for GI50: HCT-15, Colon cancer, five-dose
Summary of the method: as §1

NCI-H460 = conditions: for GI50: NCI-H460, Non-small cell lung cancer, five-dose
Summary of the method: as §1

MOLT-4 = conditions: for GI50: MOLT-4, Leukemia, five-dose
Summary of the method: as §1

A549/ATCC = conditions: for GI50: A549/ATCC, Non-small cell lung cancer, five-dose
Summary of the method: as §1

OVCAR-5 = conditions: for GI50: OVCAR-5, Ovarian cancer, five-dose
Summary of the method: as §1

SK-MEL-28 = conditions: for GI50: SK-MEL-28, Melanoma, five-dose
Summary of the method: as §1

NCI-H322M = conditions: for GI50: NCI-H322M, Non-small cell lung cancer, five-dose
Summary of the method: as §1

U251 = conditions: for GI50: U251, CNS cancer, five-dose
Summary of the method: as §1

HCC-2998 = conditions: for GI50: HCC-2998, Colon cancer, five-dose
Summary of the method: as §1

OVCAR-3 = conditions: for GI50: OVCAR-3, Ovarian cancer, five-dose
Summary of the method: as §1

T-47D = conditions: for GI50: T-47D, Breast cancer, five-dose
Summary of the method: as §1

SF-539 = conditions: for GI50: SF-539, CNS cancer, five-dose
Summary of the method: as §1

HS 578 T = conditions: for GI50: HS 578 T, Breast cancer, five-dose
Summary of the method: as §1

UO-31 = conditions: for GI50: UO-31, Renal cancer, five-dose
Summary of the method: as §1

RXF 393 = conditions: for GI50: RXF 393, Renal cancer, five-dose
Summary of the method: as §1

HCT-116 = tested on: HCT-116
Summary of the method: as §1

SK-OV-3 = conditions: for GI50: SK-OV-3, Ovarian cancer, five-dose
Summary of the method: as §1

HOP-92 = tested on: HOP-92
Summary of the method: as §1

MCF7 = conditions: for GI50: MCF7, Breast cancer, five-dose
Summary of the method: as §1

MDA-MB-435 = conditions: for GI50: MDA-MB-435, Melanoma, five-dose
Summary of the method: as §1

SW-620 = conditions: for GI50: SW-620, Colon cancer, five-dose
Summary of the method: as §1

A498 = conditions: for GI50: A498, Renal cancer, five-dose
Summary of the method: as §1

PC-3 = tested on: PC-3
Summary of the method: as §1

`COc1cc(C=NNC(=O)c2ccc3[nH]c(-c4ccc(Cl)cc4)nc3c2)cc(OC)c1OC` [8u, 2-(4-Chlorophenyl)-N'-(3,4,5-trimethoxybenzylidene)-1H-benzo[d]imidazole-5-carbohydrazide] showed an inhibition at 10 µM (OVCAR-8; Homo sapiens, OVCAR-8 (Ovarian cancer), 10 µM, read-out: GI%) greater than 100%, a GI50 (OVCAR-8; Homo sapiens) of 3.87 µM and an inhibition at 10 µM (CCRF-CEM; Homo sapiens, CCRF-CEM (Leukemia), 10 µM, read-out: GI%) greater than 100%. For the same compound, the GI50 (CCRF-CEM; Homo sapiens) was 6.27 µM, the inhibition at 10 µM (MALME-3 M; Homo sapiens, MALME-3 M (Melanoma), 10 µM, read-out: GI%) was greater than 100% and the GI50 (MALME-3 M; Homo sapiens) was 1.12 µM. The inhibition at 10 µM (HCT-15; Homo sapiens, HCT-15 (Colon cancer), 10 µM, read-out: GI%) was 44.3%, the GI50 (HCT-15; Homo sapiens) was 73 µM and the inhibition at 10 µM (NCI-H460; Homo sapiens, NCI-H460 (Non-small cell lung cancer), 10 µM, read-out: GI%) was greater than 100%. The GI50 (NCI-H460; Homo sapiens) was 3.19 µM, the inhibition at 10 µM (MOLT-4; Homo sapiens, MOLT-4 (Leukemia), 10 µM, read-out: GI%) was 96% and the GI50 (MOLT-4; Homo sapiens) was 3.58 µM. It also gave an inhibition at 10 µM (A549/ATCC; Homo sapiens, A549/ATCC (Non-small cell lung cancer), 10 µM, read-out: GI%) of 70.8%, a GI50 (A549/ATCC; Homo sapiens) of 7.55 µM and an inhibition at 10 µM (OVCAR-5; Homo sapiens, OVCAR-5 (Ovarian cancer), 10 µM, read-out: GI%) of 37.4%. It also gave a GI50 (OVCAR-5; Homo sapiens) of 15.6 µM, an inhibition at 10 µM (SK-MEL-28; Homo sapiens, SK-MEL-28 (Melanoma), 10 µM, read-out: GI%) greater than 100% and a GI50 (SK-MEL-28; Homo sapiens) of 1.83 µM. The inhibition at 10 µM (NCI-H322M; Homo sapiens, NCI-H322M (Non-small cell lung cancer), 10 µM, read-out: GI%) was 96.1%, the GI50 (NCI-H322M; Homo sapiens) was 8.29 µM and the inhibition at 10 µM (U251; Homo sapiens, U-251, U251 (CNS cancer), 10 µM, read-out: GI%) was greater than 100%. For the same compound, the GI50 (U251; Homo sapiens, U-251) was 2.59 µM, the inhibition at 10 µM (HCC-2998; Homo sapiens, HCC-2998 (Colon cancer), 10 µM, read-out: GI%) was greater than 100% and the GI50 (HCC-2998; Homo sapiens) was 11.1 µM. The inhibition at 10 µM (OVCAR-3; Homo sapiens, OVCAR-3 (Ovarian cancer), 10 µM, read-out: GI%) was greater than 100%, the GI50 (OVCAR-3; Homo sapiens) was 2.28 µM and the inhibition at 10 µM (T-47D; Homo sapiens, T47D, T-47D (Breast cancer), 10 µM, read-out: GI%) was greater than 100%. It also gave a GI50 (T-47D; Homo sapiens, T47D) of 3.48 µM, an inhibition at 10 µM (SF-539; Homo sapiens, SF-539 (CNS cancer), 10 µM, read-out: GI%) greater than 100% and a GI50 (SF-539; Homo sapiens) of 2.02 µM. For the same compound, the inhibition at 10 µM (HS 578 T; Homo sapiens, HS 578 T (Breast cancer), 10 µM, read-out: GI%) was greater than 100%, the GI50 (HS 578 T; Homo sapiens) was 2.58 µM and the inhibition at 10 µM (UO-31; Homo sapiens, UO-31 (Renal cancer), 10 µM, read-out: GI%) was 41.1%. The GI50 (UO-31; Homo sapiens) was greater than 100 µM, the inhibition at 10 µM (RXF 393; Homo sapiens, RXF 393 (Renal cancer), 10 µM, read-out: GI%) was greater than 100% and the GI50 (RXF 393; Homo sapiens) was 2.22 µM. It also gave a GI50 (HCT-116; Homo sapiens, HCT-116) of 3.26 µM, an inhibition at 10 µM (HCT-116; Homo sapiens, HCT-116, read-out: GI%) greater than 100% and an inhibition at 10 µM (SK-OV-3; Homo sapiens, SK-OV-3 (Ovarian cancer), 10 µM, read-out: GI%) greater than 100%. It also gave a GI50 (SK-OV-3; Homo sapiens) of 15 µM, an inhibition at 10 µM (HOP-92; Homo sapiens, HOP-92 (Non-small cell lung cancer), 10 µM, read-out: GI%) greater than 100% and a GI50 (HOP-92; Homo sapiens, HOP-92, Non-small cell lung cancer, five-dose) of 5.95 µM. It also gave an inhibition at 10 µM (MCF7; Homo sapiens, MCF7 (Breast cancer), 10 µM, read-out: GI%) greater than 100%, a GI50 (MCF7; Homo sapiens) of 0.66 µM and an inhibition at 10 µM (MDA-MB-435; Homo sapiens, MDA-MB-435 (Melanoma), 10 µM, read-out: GI%) greater than 100%. The GI50 (MDA-MB-435; Homo sapiens) was 4.13 µM, the inhibition at 10 µM (SW-620; Homo sapiens, SW-620 (Colon cancer), 10 µM, read-out: GI%) was greater than 100% and the GI50 (SW-620; Homo sapiens) was 4.4 µM. It also gave an inhibition at 10 µM (A498; Homo sapiens, A498 (Renal cancer), 10 µM, read-out: GI%) greater than 100%, a GI50 (A498; Homo sapiens) of 26.4 µM and an inhibition at 10 µM (PC-3; Homo sapiens, PC-3 (Prostate cancer), 10 µM, read-out: GI%) greater than 100%. The GI50 (PC-3; Homo sapiens, PC-3, Prostate cancer, five-dose) was 5.73 µM.
For “N'-(2-Hydroxybenzylidene)-2-phenyl-1H-benzo[d]imidazole-5-carbohydrazide [8a]”, the GI% (OVCAR-8; OVCAR-8 (Ovarian cancer), 10 µM) was “L (GI% > 100)”, the GI50 (OVCAR-8) was 2.49 µM and the GI% (CCRF-CEM; CCRF-CEM (Leukemia), 10 µM) was 88.16%. For the same compound, the GI50 (CCRF-CEM) was 0.26 µM, the GI% (MALME-3 M; MALME-3 M (Melanoma), 10 µM) was 99.32% and the GI50 (MALME-3 M) was 1.88 µM. The GI% (HCT-15; HCT-15 (Colon cancer), 10 µM) was 94.00%, the GI50 (HCT-15) was 1.07 µM and the GI% (NCI-H460; NCI-H460 (Non-small cell lung cancer), 10 µM) was “L (GI% > 100)”. For the same compound, the GI50 (NCI-H460) was 2.37 µM, the GI% (MOLT-4; MOLT-4 (Leukemia), 10 µM) was 89.54% and the GI50 (MOLT-4) was 1.62 µM. The GI% (A549/ATCC; A549/ATCC (Non-small cell lung cancer), 10 µM) was “L (GI% > 100)”, the GI50 (A549/ATCC) was 3.41 µM and the GI% (OVCAR-5; OVCAR-5 (Ovarian cancer), 10 µM) was 77.04%. The GI50 (OVCAR-5) was 8.5 µM, the GI% (SK-MEL-28; SK-MEL-28 (Melanoma), 10 µM) was 82.67% and the GI50 (SK-MEL-28) was 4.62 µM. The GI% (NCI-H322M; NCI-H322M (Non-small cell lung cancer), 10 µM) was 94.14%, the GI50 (NCI-H322M) was 2.13 µM and the GI% (U251; U251 (CNS cancer), 10 µM) was “L (GI% > 100)”. The GI50 (U251) was 2.11 µM, the GI% (HCC-2998; HCC-2998 (Colon cancer), 10 µM) was 73.20% and the GI50 (HCC-2998) was 3.91 µM. For the same compound, the GI% (OVCAR-3; OVCAR-3 (Ovarian cancer), 10 µM) was “L (GI% > 100)”, the GI50 (OVCAR-3) was 1.94 µM and the GI% (T-47D; T-47D (Breast cancer), 10 µM) was 93.65%. The GI50 (T-47D) was 3.38 µM, the GI% (SF-539; SF-539 (CNS cancer), 10 µM) was “L (GI% > 100)” and the GI50 (SF-539) was 2.74 µM. For the same compound, the GI% (HS 578 T; HS 578 T (Breast cancer), 10 µM) was “L (GI% > 100)”, the GI50 (HS 578 T) was 2.49 µM and the GI% (UO-31; UO-31 (Renal cancer), 10 µM) was 86.22%. The GI50 (UO-31) was 0.6 µM, the GI% (RXF 393; RXF 393 (Renal cancer), 10 µM) was “L (GI% > 100)” and the GI50 (RXF 393) was 2.37 µM. For the same compound, the GI% (HCT-116; HCT-116 (Colon cancer), 10 µM) was “L (GI% > 100)”, the GI50 (HCT-116; HCT-116, Colon cancer, five-dose) was 0.88 µM and the GI% (SK-OV-3; SK-OV-3 (Ovarian cancer), 10 µM) was “L (GI% > 100)”. The GI50 (SK-OV-3) was 2.62 µM, the GI% (HOP-92; HOP-92 (Non-small cell lung cancer), 10 µM) was “L (GI% > 100)” and the GI% (MCF7; MCF7 (Breast cancer), 10 µM) was 96.94%. It also gave a GI50 (MCF7) of 2.63 µM, a GI% (MDA-MB-435; MDA-MB-435 (Melanoma), 10 µM) of 63.10% and a GI50 (MDA-MB-435) of 5.77 µM. The GI% (SW-620; SW-620 (Colon cancer), 10 µM) was 77.39%, the GI50 (SW-620) was 3.48 µM and the GI% (A498; A498 (Renal cancer), 10 µM) was “– (GI% < 5%)”. It also gave a GI50 (A498) of 16.9 µM and a GI% (PC-3; PC-3 (Prostate cancer), 10 µM) of 90.74%.

— PMC10893631, “Receptor-based pharmacophore modeling, molecular docking, synthesis and biological evaluation of novel VEGFR-2, FGFR-1, and BRAF multi-kinase inhibitors” (BMC Chemistry, 2024)
